# Assay results taken from patent US20120015352A1, “METHOD OF DETERMINING SENSITIVITY OF HUMAN OR NON-HUMAN ANIMAL CELLS TO AN IAP ANTAGONIST” (Otto-von-Guericke-Universitat Magdeburg, priority 2009, published 2012).
# Residues, ends and D or L forms follow the SMILES beside them. *: point of attachment. Cbz = O=C(OCc1ccccc1)*; CH2F = FC*
# T1: TRAF2 (human, UniProt Q12933 2-501)
# T1 construct: Endogenous protein
# T1 sequence (looked up): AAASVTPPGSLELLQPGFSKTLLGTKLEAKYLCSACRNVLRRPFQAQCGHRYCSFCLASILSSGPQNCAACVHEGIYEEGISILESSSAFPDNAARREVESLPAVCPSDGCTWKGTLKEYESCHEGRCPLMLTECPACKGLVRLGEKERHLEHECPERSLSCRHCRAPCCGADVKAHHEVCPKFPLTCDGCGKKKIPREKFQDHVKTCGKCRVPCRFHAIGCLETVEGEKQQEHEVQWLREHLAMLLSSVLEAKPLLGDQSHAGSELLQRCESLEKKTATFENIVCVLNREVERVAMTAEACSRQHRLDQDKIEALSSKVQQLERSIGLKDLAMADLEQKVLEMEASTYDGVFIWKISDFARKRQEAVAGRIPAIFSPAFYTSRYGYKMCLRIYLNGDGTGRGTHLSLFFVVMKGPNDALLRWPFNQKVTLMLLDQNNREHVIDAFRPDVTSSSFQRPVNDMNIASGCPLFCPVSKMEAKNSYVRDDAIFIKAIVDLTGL
# T2: RIP1 (human, UniProt Q13546 1-671)
# T2 construct: Endogenous protein; also called kinase RIP1; full length RIP1
# T2 sequence (looked up): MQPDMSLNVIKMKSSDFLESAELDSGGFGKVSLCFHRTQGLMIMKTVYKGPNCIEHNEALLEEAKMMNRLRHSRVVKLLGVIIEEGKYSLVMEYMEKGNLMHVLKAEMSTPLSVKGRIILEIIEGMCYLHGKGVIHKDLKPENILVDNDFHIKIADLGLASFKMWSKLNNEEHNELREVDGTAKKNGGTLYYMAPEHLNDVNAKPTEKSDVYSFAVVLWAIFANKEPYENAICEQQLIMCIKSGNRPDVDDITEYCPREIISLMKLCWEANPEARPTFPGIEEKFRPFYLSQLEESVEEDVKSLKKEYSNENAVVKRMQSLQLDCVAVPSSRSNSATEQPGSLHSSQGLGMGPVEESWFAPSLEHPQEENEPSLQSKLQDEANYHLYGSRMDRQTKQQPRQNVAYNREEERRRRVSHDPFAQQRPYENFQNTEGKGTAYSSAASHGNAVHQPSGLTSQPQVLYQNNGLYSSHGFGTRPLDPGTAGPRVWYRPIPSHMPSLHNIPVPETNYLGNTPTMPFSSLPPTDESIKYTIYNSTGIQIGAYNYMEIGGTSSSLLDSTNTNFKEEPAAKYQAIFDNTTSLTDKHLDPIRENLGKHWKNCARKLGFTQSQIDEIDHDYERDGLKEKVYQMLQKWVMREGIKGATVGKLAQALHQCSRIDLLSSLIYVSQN
# B1: Fc-CD95L: Fc-CD95L supernatant expressed from a published construct; death ligand (protein)
# chain: EKKELRKVAHLTGKSNSRSMPLEWEDTYGIVLLSGVKYKKGGLVINETGLYFVYSKVYFRGQSCNNLPLSHKVYMRNSKYPQDLVMMEGKMMSYCTTGQMWARSSYLGAVFNLTSADHLYVNVSELSLVNFEESQTFFGLYKL
# modifications: left off: a dimerising Fc or GST
# notes: Fc-CD95L supernatant expressed from a published construct; death ligand
# B2: caspase-8 (enzyme, human, UniProt Q14790 1-479, looked up)
# chain: MDFSRNLYDIGEQLDSEDLASLKFLSLDYIPQRKQEPIKDALMLFQRLQEKRMLEESNLSFLKELLFRINRLDLLITYLNTRKEEMERELQTPGRAQISAYRVMLYQISEEVSRSELRSFKFLLQEEISKCKLDDDMNLLDIFIEMEKRVILGEGKLDILKRVCAQINKSLLKIINDYEEFSKERSSSLEGSPDEFSNGEELCGVMTISDSPREQDSESQTLDKVYQMKSKPRGYCLIINNHNFAKAREKVPKLHSIRDRNGTHLDAGALTTTFEELHFEIKPHDDCTVEQIYEILKIYQLMDHSNMDCFICCILSHGDKGIIYGTDGQEAPIYELTSQFTGLKCPSLAGKPKVFFIQACQGDNYQKGIPVETDSEEQPYLEMDLSSPQTRYIPDEADFLLGMATVNNCVSYRNPAEGTWYIQSLCQSLRERCPRGDDILTILTEVNYEVSNKDDKKNMGKQMPQPTFTLRKKLVFPSD
# notes: Endogenous protein in cell lysates; also called caspase-8 p43/41 (cleaved form seen in the DISC)
# B3: CD95 (receptor, human, UniProt P25445 26-335, looked up)
# chain: QVTDINSKGLELRKTVTTVETQNLEGLHHDGQFCHKPCPPGERKARDCTVNGDEPDCVPCQEGKEYTDKAHFSSKCRRCRLCDEGHGLEVEINCTRTQNTKCRCKPNFFCNSTVCEHCDPCTKCEHGIIKECTLTSNTKCKEEGSRSNLGWLCLLLLPIPLIVWVKRKEVQKTCRKHRKENQGSHESPTLNPETVAINLSDVDLSKYITTIAGVMTLSQVKGFVRKNGVNEAKIDEIKNDNVQDTAEQKVQLLRNWHQLHGKKEAYDTLIKDLKKANLCTLAEKIQTIILKDITSDSENSNFRNEIQSLV
# notes: whole, on cells; recruitment to it may be indirect (through FADD); also called CD95 DISC; CD95 receptor
# How the values were obtained:
# [1] = test system: A5-RT3 cells; assay: Cytotoxicity assay (crystal violet); format: cell-based, human
# Experimental: (§1) Cytotoxicity assay. Crystal violet staining of attached, living cells was performed 20-24 h after stimulation with the indicated concentrations of TRAIL or CD95L in 96 well plates in triplicate wells per condition as described^37. The optical density (OD) of control cultures was normalized to 100% compared to stimulated cells. For statistical analysis the standard error of mean (SEM) was determined for 3-7 independent experiments of each cell line and stimulatory condition.
# [2] = test system: HaCaT cells; assay: Cytotoxicity assay (crystal violet); format: cell-based, human
# Experimental: as §1
# [3] = test system: HaCaT cells; assay: Immunofluorescence microscopy (Hoechst 33342, nuclear morphology); format: cell-based, human; settings: zVAD-fmk 10 μM; for protection from cell death: CD95L 24 hrs
# Experimental: Immunofluorescence microscopy. For detection of nuclear morphology, 5×10^4 cells of the respective cells were seeded per well in a 12-well plate. Subsequently, cells were incubated with Hoechst 33342 (5 μg/ml) for 15 min at 37° C. immediately followed by phase contrast or fluorescence microscopy using a suitable instrument (Leica). Digital images were identically processed using appropriate software.
# [4] = test system: A375 melanoma cells; assay: Fc-CD95L unit determination (killing of cells); format: cell-based; settings: one unit = 1:500 dilution of stock Fc-CD95L supernatant
# Experimental: Materials. […] B-actin Abs were from a suitable source. His-FLAG-TRAIL (HF-TRAIL) was produced as recently described^17. For expression of Fc-CD95L we used a construct recently published^57 (kindly provided by P. Schneider, Epalinges, Switzerland). One unit of Fc-CD95L was determined as a 1:500 dilution of the stock Fc-CD95L supernatant, and one unit/ml of Fc-CD95L supernatant was sufficient to kill 50 percent (LD50) of A375 melanoma cells, as recently described^58. […] Horseradish peroxidase (HRP)-conjugated goat anti-rabbit, goat anti rat IgG, goat anti-mouse IgG Abs and HRP-conjugated goat anti-mouse IgG1, IgG2a, IgG2b, and IgG1κ were obtained from Southern Biotechnology Associates (Birmingham, Ala.). TRAIL-R1 (HS 101), TRAIL-R2 (HS 201), mAbs for FACScan analysis of surface receptor expression were used as previously described^26 and are available from Alexis (San Diego, Calif.). CD95 Abs (Apo-1 IgG1 and IgG3a) were kindly provided by P. H. Krammer (German Cancer Research Center, Heidelberg, Germany). Cy5-conjugated Annexin V was purchased from Pharmingen (Hamburg, Germany). The IAP inhibitor (compound A) was provided by Tetralogic Pharmaceuticals (Malvern, Pa., USA). Compound A is exemplified in US20060194741, which is incorporated in its entirety by reference herein, and Compound A has the following structure: […]
# [5] = target: T1, TRAF2; assay: caspase-8 co-immunoprecipitation (complex II), Western blot
# [6] = target: T1, TRAF2; assay: CD95L-Fc ligand affinity precipitation of the CD95 DISC, Western blot
# Experimental: (§2) Ligand affinity precipitation of Receptor complexes. For the precipitation of the CD95L DISC, 5×10⁶ cells were used for each condition. Cells were washed once with medium at 37° C. and subsequently preincubated for 1 h with 10 μM zVAD-fmk and, as indicated with 100 nM IAP inhibitor at 37° C. Subsequently cells were treated with 250 units/ml CD95L-Fc for 2 h or, for the unstimulated control, in the absence of ligands. Receptor complex formation was stopped by washing the monolayer four times with ice-cold PBS. Cells were lysed on ice by addition of 2 ml lysis buffer (30 mM Tris-HCl pH 7.5 at 21° C., 120 mM NaCl, 10% Glycerol, 1% Triton X-100, Complete® protease inhibitor cocktail (Roche Molecular Diagnostics, Mannheim, Germany)). After 30 min lysis on ice, the lysates were centrifuged two times at 20,000×g for 5 min and 30 min, respectively, to remove cellular debris. A minor fraction of these clear lysates were used to control for the input of the respective proteins. For the precipitation of the CD95 receptor and stimulation-dependent recruited proteins, Apo-1 IgG3 antibodies (kindly provided by P. H. Krammer) were added to the lysates prepared from non-stimulated as well as stimulated cells to precipitate the receptor-interacting proteins. […]
# [7] = target: T2, RIP1; assay: CD95L-Fc ligand affinity precipitation of the DISC from control-infected HaCaT cells, Western blot
# Experimental: as §2
molecule,measurement,setting,value
CN1C(=O)C(Cc2c[nH]c3ccccc23)NC1=S (stereo not drawn) [necrostatin-1],protection from death ligand-mediated cell death,"[1]; cFLIP-shRNA A5-RT3 cells, necrostatin-1 50 μM, IAP inhibitor, CD95L",ineffective
same,protection from CD95L-mediated cell death,"[2]; cFLIPS-expressing HaCaT, IAP inhibitor + CD95L, necrostatin-1 50 μM, 24 hrs",fully protected
same,protection from TRAIL- or CD95L-mediated cell death,"[2]; necrostatin-1 50 μM added to zVAD-fmk-protected cells, IAP inhibitor 100 nM",fully recovered viability
same,protection from death ligand-mediated cell death,"[2]; necrostatin-1 50 μM alone, no caspase inhibitor, IAP inhibitor 100 nM",ineffective
COC(=O)C[C@H](NC(=O)[C@H](C)NC(=O)[C@@H](NC(=O)OCc1ccccc1)C(C)C)C(=O)CF [zVAD-fmk] (Cbz-Val-Ala-Asp(OMe)-CH2F),protection from death ligand-mediated cell death,"[1]; cFLIP-downregulated cells insensitive to IAP inhibitor, zVAD-fmk",fully protected
same,protection from death receptor-mediated cell death,"[2]; cFLIPS-expressing HaCaT, IAP inhibitor + CD95L, zVAD-fmk 10 μM",not protected
same,block of TRAIL- or CD95L-mediated cell death,"[2]; zVAD-fmk 10 μM, in the presence of IAP inhibitor 100 nM",only partially blocked
same,block of TRAIL- or CD95L-mediated cell death,"[2]; zVAD-fmk 10 μM, without IAP inhibitor, 24 hrs",fully blocked cell death
same,protection of cellular morphology or DNA fragmentation,"[3]; CD95L 4 hrs, in the presence of IAP inhibitor",fully protected
same,protection from cell death,[3]; in the presence of IAPs (no IAP inhibitor),complete protection
same,protection from cell death,[3]; with IAP inhibitor,did not protect
B1,LD50 (kill 50 percent of cells),[4],one
B2,binding result,[5],no binding
B3,binding result,[6],no binding
same,binding result,[7],binds
